Our source for the Activity, inhibition and IC50 values is ChEMBL document CHEMBL4417634, “DNA2 inhibitors for cancer treatment” (2018).

In assay [1] the test system is U2OS. Put plainly: Induction of single-stranded DNA accumulation in human U2OS cells assessed as reduction in P-RPA foci at 50 uM. It is filed as functional, cell-based.
Assay [2] concerns the target Flap endonuclease 1 (Homo sapiens) (UniProt P39748).
Assay [3] concerns HCT-116. Put plainly: Cytotoxicity against human HCT116 cells assessed as reduction in cell viability at 10 to 10000 nM in presence of siFEN1 by tryphan blue staining based assay. The format is functional.
A short description of assay [4]: Cytotoxicity against human CWRR1 cells assessed as reduction in cell viability incubated for 7 days. The format is functional, cell-based. The following applies: 168 h.
A further assay has as its system LNCaP C4-2. Put plainly: Cytotoxicity against human C4-2 cells assessed as reduction in cell viability incubated for 7 days. The format is functional, cell-based. The note with it: LNCaP C4-2, 168 h.
Another assay deals with FHC. Put plainly: Cytotoxicity against human FHC cells assessed as reduction in cell viability incubated for 7 days. The format is cell-based. The note with it: 168 h.
Another assay relates to NCI-H460. Put plainly: Cytotoxicity against human NCI-H460 cells assessed as reduction in cell viability incubated for 7 days. The format is functional, cell-based. The note with it: NCI-H460, 168 h.
In a further assay the test system is MDA-MB-231. Put plainly: Cytotoxicity against human MDA-MB-231 cells assessed as reduction in cell viability incubated for 7 days. The format is functional, cell-based. The following applies: MDA-MB-231, 168 h.
Assay [5] relates to MCF7. Put plainly: Cytotoxicity against human MCF7 cells assessed as reduction in cell viability incubated for 7 days. The note with it: MCF7, 168 h. It is filed as functional, cell-based.
The subject of the next assay is DLD-1. Put plainly: Cytotoxicity against human DLD1 cells assessed as reduction in cell viability incubated for 7 days. The format is functional, cell-based. The note with it: DLD-1, 168 h.
The species entered for a further assay is Mus musculus. Put plainly: Cytotoxicity against dna2 (-/-) mouse MES cells assessed as cell survival relative to control. It is filed as functional, cell-based.
A further assay relates to NCI-H2030. Put plainly: Cytotoxicity against human NCI-H2030 cells assessed as reduction in cell viability incubated for 7 days. The format is functional, cell-based. The following applies: NCI-H2030, 168 h.
Another assay concerns RWPE-1. Put plainly: Cytotoxicity against human RWPE1 cells assessed as reduction in cell viability incubated for 7 days. The format is cell-based. The following applies: RWPE-1, 168 h.
Assay [6] relates to HCT-116. Put plainly: Cell cycle arrest in human HCT116 cells assessed as accumulation at G2/M phase at 10 uM incubated for 48 hrs by propidium iodide staining based flow cytometry (reference value: […]). It is filed as functional.
In another assay the test system is HCT-8. Put plainly: Cytotoxicity against human HCT8 cells assessed as reduction in cell viability incubated for 7 days. The format is functional, cell-based. The following applies: HCT-8, 168 h.
For assay [7], the system named is Saccharomyces cerevisiae. Put plainly: Potentiation of DNA damaging agent methyl methane sulfonate-induced cytotoxicity in yeast cells by dilution assay. It is filed as functional, organism-based.
Assay [8] has as its system Saccharomyces cerevisiae. Put plainly: Potentiation of DNA damaging agent methyl methane sulfonate-induced cytotoxicity in yeast cells deficient in rad27 by dilution assay. The format is functional, organism-based.
Assay [9] has as its system Saccharomyces cerevisiae. Put plainly: Potentiation of high temperature-induced cytotoxicity in yeast cells by dilution assay. The format is functional, organism-based.
The next assay relates to CWR22R. Put plainly: Cytotoxicity against human 22Rv1 cells assessed as reduction in cell viability incubated for 7 days. It is filed as functional, cell-based. The following applies: 22Rv1, 168 h.
Assay [10] relates to HCT-116. Put plainly: Cytotoxicity against human HCT116 cells assessed as reduction in cell viability at 10 to 10000 nM in presence of siEXO1 by tryphan blue staining based assay. The format is functional.
For the next assay, the system named is PC-3. Put plainly: Cytotoxicity against human PC3 cells assessed as reduction in cell viability incubated for 7 days. It is filed as functional, cell-based. The following applies: PC-3, 168 h.
In assay [11] the test system is HCT-116. Put plainly: Cytotoxicity against human HCT116 cells assessed as reduction in cell viability incubated for 7 days. The format is functional, cell-based. The following applies: HCT-116, 168 h.
In another assay the test system is A549. Put plainly: Cytotoxicity against human A549 cells assessed as reduction in cell viability incubated for 7 days. The format is functional, cell-based. The note with it: A549, 168 h.
For a further assay, the system named is MCF-10A. Put plainly: Cytotoxicity against human MCF10A cells assessed as reduction in cell viability incubated for 7 days. The format is cell-based. The following applies: 168 h.
For a further assay, the species on record is Homo sapiens. Put plainly: Suppression of 125 nM cisplatin-induced cytotoxicity in FANCD2 (-/-) human PD20 cells assessed as increase in cell survival at 10 uM. It is filed as functional, cell-based.
The test system of assay [12] is MCF7. Put plainly: Cytotoxicity against human MCF7 cells transfected with shDNA2 assessed as cell survival relative to control. The format is functional, cell-based.
Assay [13] concerns HCT-116. Put plainly: Cell cycle arrest in human HCT116 cells assessed as accumulation at S phase at 10 uM incubated for 48 hrs by propidium iodide staining based flow cytometry (reference value: […]). The format is functional.
Assay [14] deals with HCT-116. Put plainly: Cytotoxicity against human HCT116 cells assessed as reduction in cell viability at 10 to 10000 nM in presence of siMRE11 by tryphan blue staining based assay. The format is functional.
In a further assay the test system is WiDr. Put plainly: Cytotoxicity against human WiDr cells assessed as reduction in cell viability incubated for 7 days. It is filed as functional, cell-based. The note with it: 168 h.
Assay [15] has as its system Saccharomyces cerevisiae. Put plainly: Potentiation of high temperature-induced cytotoxicity in yeast cells deficient in rad27 by dilution assay. It is filed as functional, organism-based.
Assay [16] addresses Exonuclease 1 (Homo sapiens) (UniProt Q9UQ84).
Assay [17] relates to HCT-116. Put plainly: Cell cycle arrest in human HCT116 cells assessed as accumulation at G1 phase at 10 uM incubated for 48 hrs by propidium iodide staining based flow cytometry (reference value: 76.2%). The format is functional.
For another assay, the system named is HT-29. Put plainly: Cytotoxicity against human HT-29 cells assessed as reduction in cell viability incubated for 7 days. It is filed as functional, cell-based. The note with it: HT-29, 168 h.
Another assay relates to IMR-90. Put plainly: Cytotoxicity against human IMR90 cells assessed as reduction in cell viability incubated for 7 days. It is filed as cell-based. The following applies: IMR-90, 168 h.
Assay [18] deals with HCT-116. Put plainly: Cell cycle arrest in human HCT116 cells assessed as accumulation at G2/M phase at 50 uM incubated for 48 hrs by propidium iodide staining based flow cytometry (reference value: […]). It is filed as functional.
The test system of assay [19] is U2OS. Put plainly: Induction of single-stranded DNA accumulation in human U2OS cells assessed as reduction in P-RPA foci at 20 uM. It is filed as functional, cell-based.
The subject of assay [20] is HCT-116. Put plainly: Cell cycle arrest in human HCT116 cells assessed as accumulation at S phase at 50 uM incubated for 48 hrs by propidium iodide staining based flow cytometry (reference value: […]). The format is functional.
Assay [21] relates to HCT-116. Put plainly: Cell cycle arrest in human HCT116 cells assessed as accumulation at G1 phase at 50 uM incubated for 48 hrs by propidium iodide staining based flow cytometry (reference value: 76.2%). It is filed as functional.

Structures are written as SMILES. Activity calls are given as the source filed them. The calls are words filed in the database; no cut-off is given here.

Sequence of Flap endonuclease 1 (Homo sapiens) (P39748 whole entry): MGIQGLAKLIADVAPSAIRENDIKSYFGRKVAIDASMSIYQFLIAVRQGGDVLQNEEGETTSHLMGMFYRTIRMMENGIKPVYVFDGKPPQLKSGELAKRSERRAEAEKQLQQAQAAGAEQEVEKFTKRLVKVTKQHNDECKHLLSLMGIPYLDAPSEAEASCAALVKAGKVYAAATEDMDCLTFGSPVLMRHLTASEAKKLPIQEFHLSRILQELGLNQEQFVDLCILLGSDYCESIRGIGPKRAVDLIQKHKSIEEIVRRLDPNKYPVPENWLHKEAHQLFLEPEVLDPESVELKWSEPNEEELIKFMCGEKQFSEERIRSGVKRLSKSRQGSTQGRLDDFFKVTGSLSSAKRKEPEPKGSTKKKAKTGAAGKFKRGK
Sequence of Exonuclease 1 (Homo sapiens) (Q9UQ84 whole entry): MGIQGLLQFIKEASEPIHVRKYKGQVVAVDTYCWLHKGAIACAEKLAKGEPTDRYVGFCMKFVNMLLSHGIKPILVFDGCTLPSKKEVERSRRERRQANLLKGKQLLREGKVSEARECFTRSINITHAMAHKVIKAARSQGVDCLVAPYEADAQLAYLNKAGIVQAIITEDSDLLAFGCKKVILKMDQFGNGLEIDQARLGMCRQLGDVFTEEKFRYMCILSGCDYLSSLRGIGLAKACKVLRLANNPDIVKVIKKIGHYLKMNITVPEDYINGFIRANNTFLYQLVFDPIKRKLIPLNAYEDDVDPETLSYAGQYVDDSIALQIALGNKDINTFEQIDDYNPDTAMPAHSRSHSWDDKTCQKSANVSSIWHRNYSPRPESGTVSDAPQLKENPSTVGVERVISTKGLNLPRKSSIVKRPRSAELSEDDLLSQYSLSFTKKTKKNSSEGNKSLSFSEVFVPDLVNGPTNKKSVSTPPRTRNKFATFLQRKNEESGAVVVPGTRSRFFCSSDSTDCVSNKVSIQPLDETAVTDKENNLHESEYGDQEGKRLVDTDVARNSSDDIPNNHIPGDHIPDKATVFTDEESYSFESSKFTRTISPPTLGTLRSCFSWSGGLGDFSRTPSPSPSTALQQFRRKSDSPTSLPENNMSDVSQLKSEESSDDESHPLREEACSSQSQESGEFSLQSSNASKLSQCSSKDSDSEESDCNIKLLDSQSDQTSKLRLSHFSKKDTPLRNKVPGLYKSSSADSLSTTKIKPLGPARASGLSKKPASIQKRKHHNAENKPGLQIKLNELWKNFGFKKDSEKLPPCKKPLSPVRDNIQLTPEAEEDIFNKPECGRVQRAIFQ

`N=C1NC(=O)/C(=C/c2ccc(O)cc2)S1`: the result in the assay on U2OS [1] was inactive.

As for `O=C(O)c1cnc2c([N+](=O)[O-])cccc2c1O`, the inhibition result in assay [2] and in [16] was “inactive” each time. Besides, the result in the assay with HCT-116 [3], in the assay listed under Mus musculus, in the assay on Saccharomyces cerevisiae [8], with HCT-116 [10], in the assay filed under Homo sapiens and in the assay on MCF7 [12] was Active. For the same molecule, the result in the assay on HCT-116 [14] and with Saccharomyces cerevisiae [15] was Active. The IC50 in assay [4] stood at 15.7 µM; with LNCaP C4-2 it was 19.7 µM; in the assay with FHC it was 75.2 µM; with NCI-H460, 43.7 µM; in the assay on MDA-MB-231, 46.8 µM; in the assay on MCF7 [5] it was 7.2 µM. Besides, the IC50 stood at 25.1 µM with DLD-1; 17.7 µM in the assay on NCI-H2030; 78.8 µM in the assay on RWPE-1; 27.5 µM in the assay on HCT-8; 11.8 µM with CWR22R; 20.9 µM in the assay with PC-3. For the same molecule, the IC50 in the assay with HCT-116 [11] came out at 24.2 µM; in the assay on A549 it was 23.6 µM; with MCF-10A, 24.4 µM; in the assay on WiDr, 52.6 µM; in the assay with HT-29, 40.5 µM; with IMR-90 it was 95.5 µM. Besides, the Activity with HCT-116 [6] amounted to 12.6%; in the assay with HCT-116 [13] it was 13%; with HCT-116 [17], 66.9%; in the assay with HCT-116 [18], 28.1%; in the assay on HCT-116 [20], 17.2%; with HCT-116 [21], 54.1%. Moreover, the outcome in the assay with Saccharomyces cerevisiae [7], with Saccharomyces cerevisiae [9] and in the assay with U2OS [19] was inactive.

Regarding `CCCCNC(=O)c1c[nH]c2c([N+](=O)[O-])cccc2c1=O`, the outcome in the assay with Saccharomyces cerevisiae [7] and with Saccharomyces cerevisiae [9] was inactive. The result in the assay with Saccharomyces cerevisiae [8] and in the assay with Saccharomyces cerevisiae [15] was Active.
